Source: patent US20230372365A1, “METHODS OF TREATING FIBROMYALGIA WITH NEUROACTIVE STEROIDS” (priority 2020, published 2023)

Legend:
[1] = test system: GABAA receptor subtypes; experiment: FLIPR calcium flux, all 18 subtypes taken together; assay type: cell-based; conditions: 18 subtypes tested
Description: (§1) Cells expressing the indicated GABAA receptor subtype were exposed to gamma-aminobutyric acid in the presence of varying concentrations of either CV-10155 or SPNC-019, calcium flux was measured using a fluorometric imaging plate reader (FLIPR), and EC50 values for compounds were determined.
The results further indicate that the isomeric purity of compositions containing compounds of Formula (I) greatly impacts the utility of such compositions as therapeutic agents.

[2] = biological target: T1, α4β3δ GABAA receptor (Homo sapiens, UniProt O14764+P28472+P48169); experiment: FLIPR calcium flux, modulation of GABA response; assay type: cell-based; design: expressed in transfected cells; conditions: comparison of Example 1 data
Description: as §1

[3] = biological target: picrotoxin binding site of GABAA receptors; conditions: membranes from cortices of rat brains; read-out: IC50 in the TBPS displacement assay; cited from earlier work
[4] = biological target: T1, α4β3δ GABAA receptor; design: expressed in transfected cells; host or cells: CHO cells, transiently transfected; conditions: 10 μM steroid, GABA 2 μM (EC20), CHO cells; cited from earlier work
[5] = biological target: T2, α1β2γ2 GABAA receptors (Homo sapiens, UniProt P14867+P18507+P47870); conditions: 10 μM steroid, GABA 2 μM (EC20), LTK cells; cited from earlier work
T2 construct: expressed in transfected cells; host or cells: LTK cells, stably transfected
T2 sequence (P14867 28-456): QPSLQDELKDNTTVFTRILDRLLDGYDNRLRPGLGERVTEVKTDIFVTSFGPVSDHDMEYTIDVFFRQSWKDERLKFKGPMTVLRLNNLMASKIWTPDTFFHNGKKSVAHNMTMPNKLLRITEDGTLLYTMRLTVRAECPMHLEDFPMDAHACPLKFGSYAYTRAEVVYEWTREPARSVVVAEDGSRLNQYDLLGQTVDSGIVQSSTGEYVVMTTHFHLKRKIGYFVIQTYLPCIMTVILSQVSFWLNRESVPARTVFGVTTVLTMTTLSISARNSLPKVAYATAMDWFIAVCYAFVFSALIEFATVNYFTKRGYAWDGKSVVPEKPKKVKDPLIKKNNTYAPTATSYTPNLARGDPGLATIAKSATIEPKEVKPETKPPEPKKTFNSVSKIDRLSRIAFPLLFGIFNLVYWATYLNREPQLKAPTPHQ
T2 sequence (P47870 25-512 limits assumed): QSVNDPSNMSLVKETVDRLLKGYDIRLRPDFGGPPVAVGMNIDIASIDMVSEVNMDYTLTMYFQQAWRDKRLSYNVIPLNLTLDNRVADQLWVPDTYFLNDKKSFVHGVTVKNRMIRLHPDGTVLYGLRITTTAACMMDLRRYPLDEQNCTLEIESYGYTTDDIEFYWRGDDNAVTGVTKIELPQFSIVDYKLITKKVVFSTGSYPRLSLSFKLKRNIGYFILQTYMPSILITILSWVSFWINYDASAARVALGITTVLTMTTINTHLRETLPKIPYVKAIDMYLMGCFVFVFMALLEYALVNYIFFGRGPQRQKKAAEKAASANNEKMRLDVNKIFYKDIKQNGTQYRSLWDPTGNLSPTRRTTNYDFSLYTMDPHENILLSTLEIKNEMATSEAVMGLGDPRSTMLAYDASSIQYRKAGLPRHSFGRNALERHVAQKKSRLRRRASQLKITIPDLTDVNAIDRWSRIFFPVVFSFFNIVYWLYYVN
T2 sequence (P18507 40-475): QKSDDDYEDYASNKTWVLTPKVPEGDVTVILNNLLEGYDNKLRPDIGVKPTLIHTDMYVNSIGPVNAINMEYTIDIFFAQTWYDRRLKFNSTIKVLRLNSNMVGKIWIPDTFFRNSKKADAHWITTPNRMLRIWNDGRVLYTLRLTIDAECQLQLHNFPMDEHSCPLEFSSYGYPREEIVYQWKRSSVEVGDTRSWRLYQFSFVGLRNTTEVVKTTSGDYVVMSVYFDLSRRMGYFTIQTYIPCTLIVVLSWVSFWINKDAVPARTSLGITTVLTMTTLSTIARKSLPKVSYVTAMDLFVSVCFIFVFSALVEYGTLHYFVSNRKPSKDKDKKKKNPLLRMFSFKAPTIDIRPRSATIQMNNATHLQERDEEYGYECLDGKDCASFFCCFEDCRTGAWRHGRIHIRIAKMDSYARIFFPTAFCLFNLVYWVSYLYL

T1 sequence (P48169 36-554): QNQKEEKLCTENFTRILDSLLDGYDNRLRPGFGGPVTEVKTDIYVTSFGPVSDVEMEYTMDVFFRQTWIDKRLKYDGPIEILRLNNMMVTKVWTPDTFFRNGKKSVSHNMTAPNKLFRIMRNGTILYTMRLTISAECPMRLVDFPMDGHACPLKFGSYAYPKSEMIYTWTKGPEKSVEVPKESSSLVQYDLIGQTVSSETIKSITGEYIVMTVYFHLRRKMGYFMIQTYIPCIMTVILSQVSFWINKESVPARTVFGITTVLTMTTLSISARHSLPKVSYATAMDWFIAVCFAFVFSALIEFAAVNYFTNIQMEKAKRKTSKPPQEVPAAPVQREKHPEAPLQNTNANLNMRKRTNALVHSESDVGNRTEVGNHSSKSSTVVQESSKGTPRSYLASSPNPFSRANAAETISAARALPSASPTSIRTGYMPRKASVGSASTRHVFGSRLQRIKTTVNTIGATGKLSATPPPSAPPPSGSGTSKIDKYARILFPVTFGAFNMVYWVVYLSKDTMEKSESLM
T1 sequence (P28472 26-473): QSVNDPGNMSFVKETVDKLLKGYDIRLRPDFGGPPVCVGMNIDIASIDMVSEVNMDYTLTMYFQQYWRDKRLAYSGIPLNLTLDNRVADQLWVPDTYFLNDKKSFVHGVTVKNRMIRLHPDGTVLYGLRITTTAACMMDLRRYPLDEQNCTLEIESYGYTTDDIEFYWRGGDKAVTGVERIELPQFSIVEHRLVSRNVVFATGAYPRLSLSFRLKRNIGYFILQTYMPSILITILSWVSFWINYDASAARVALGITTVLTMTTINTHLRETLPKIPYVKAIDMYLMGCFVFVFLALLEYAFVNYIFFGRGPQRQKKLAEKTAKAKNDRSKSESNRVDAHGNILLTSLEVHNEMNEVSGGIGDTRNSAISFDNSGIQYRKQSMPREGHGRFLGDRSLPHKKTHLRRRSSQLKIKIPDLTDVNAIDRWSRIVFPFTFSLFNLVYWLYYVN
T1 sequence (O14764 25-452): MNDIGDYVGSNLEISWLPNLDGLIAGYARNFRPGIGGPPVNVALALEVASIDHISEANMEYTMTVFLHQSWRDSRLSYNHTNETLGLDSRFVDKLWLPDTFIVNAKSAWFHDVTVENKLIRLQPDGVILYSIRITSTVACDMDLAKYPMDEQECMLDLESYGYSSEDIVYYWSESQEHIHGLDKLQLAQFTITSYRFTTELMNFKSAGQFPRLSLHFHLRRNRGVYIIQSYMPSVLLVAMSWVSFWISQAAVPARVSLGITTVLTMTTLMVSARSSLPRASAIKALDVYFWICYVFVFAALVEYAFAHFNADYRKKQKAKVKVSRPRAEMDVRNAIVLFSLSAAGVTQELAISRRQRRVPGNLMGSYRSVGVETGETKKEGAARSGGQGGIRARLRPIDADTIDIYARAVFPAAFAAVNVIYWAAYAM

C[C@@]1(O)CC[C@@]2(C)[C@@H](CC[C@@H]3[C@@H]2CC[C@]2(C)[C@@H](C(=O)Cn4cc(C#N)cn4)CC[C@@H]32)C1 [CV-10155, 1-[2-[(3R,5S,8R,9S,10S,13S,14S,17S)-3-hydroxy-3,10,13-trimethyl-1,2,4,5,6,7,8,9,11,12,14,15,16,17-tetradecahydrocyclopenta[a]phenanthren-17-yl]-2-oxoethyl]pyrazole-4-carbonitrile]
modulating activity across the GABAA receptor subtypes tested [1]: some level of positive allosteric modulating activity in all of the GABAA receptor subtypes tested | preferential modulation of α4β3δ compared to α1β2γ2 GABAA receptors [2]: preferentially modulate | preferential modulation of α4β3δ compared to α1β2γ2 GABAA receptors ([2]; listed as Formula (I)): substantially more active

C[C@@]1(O)CC[C@@]2(C)[C@H](CC[C@@H]3[C@@H]2CC[C@]2(C)[C@@H](C(=O)Cn4cc(C#N)cn4)CC[C@@H]32)C1 [Compound 10]
IC50 [3]: < 10 nM

C[C@@]1(O)CC[C@@]2(C)[C@@H](CC[C@@H]3[C@@H]2CC[C@]2(C)[C@@H](C(=O)Cn4ccc(C#N)n4)CC[C@@H]32)C1 [Compound 121]
IC50 [3]: 10 to 50 nM | efficacy (relative potentiation of GABA-mediated conductance) [4]: > 500% | efficacy (relative potentiation of GABA-mediated conductance) [5]: > 500%

C[C@]1(O)CC[C@@]2(C)[C@@H](CC[C@@H]3[C@@H]2CC[C@]2(C)[C@@H](C(=O)Cn4cc(C#N)cn4)CC[C@@H]32)C1 [SPNC-019]
modulating activity across the GABAA receptor subtypes tested [1]: no modulating activity in 15 of the 18 GABAA receptor subtypes tested
